From patent publication US20060183122A1, “Fanc gene mutations in cancer” (priority 2002, published 2006)
Entries after “also recorded” stand apart in the source; their conditions may differ.

What was measured:
Assay type in all cases: cell-based
PL11 = assay: G2/M cell cycle arrest after MMC treatment (flow cytometry); details: MMC 2 hours, analyzed 48 hours later, arrest = twofold increase of 4N fraction vs untreated
Method: (§1) Cells were cultured in 25 cm^2 flasks and treated with MMC for two hours. Cells were washed with PBS and incubated with normal tissue culture medium for 48 hours.
(§2) Cells were obtained by trypsinization and resuspended in 3.7% paraformaldehyde in PBS, stained with Hoechst 33258 (Sigma), incubated at 4° C. for 10 min and analyzed using a flow cytometer. A “G2/M arrest” was defined as a twofold increase of the percentage of cells in G2/M, as compared to untreated cells.
(§3) The methods used to investigate cell “survival” upon treatment with MMC and cisplatin sum the effects of cell death, slow growth and the occurrence of a cell cycle arrest. To determine the potential contribution of an arrest, we analyzed cell cycle distributions of DNA content after MMC treatment. Six pancreatic cancer cell lines (BxPC3, MiaPaCa2, Su86.86, PL11, Hs766T and CAPAN1) and one HNSCC cell line (FaDu) were analyzed 48 hours after MMC treatment for 2 hours; a G2/M arrest was defined as a twofold increase of the fraction of cells containing 4N DNA content, as compared to untreated cells (FIG. 4). Hs766T arrested in G2/M at a MMC concentration of 100 nM, PL11 at 100 nM, CAPAN1 at 200 nM and FaDu at 500 nM, whereas control pancreatic cancer cell lines MiaPaCa2, Su86.86 and BxPC3 […] at MMC concentrations as high as 2 μM.

FaDu = assay: as above; details: MMC 2 hours, analyzed 48 hours later, arrest = twofold increase of 4N fraction vs untreated
Method: as §1, §2, §3

BxPC3 = assay: as above; details: BxPC3 (control line); MMC 2 hours, analyzed 48 hours later; concentrations as high as
Method: as §1, §2, §3

Hs766T [1] = assay: as above; details: MMC 2 hours, analyzed 48 hours later, arrest = twofold increase of 4N fraction vs untreated
Method: as §1, §2, §3

CAPAN1 [2] = assay: as above; details: MMC 2 hours, analyzed 48 hours later, arrest = twofold increase of 4N fraction vs untreated
Method: as §1, §2, §3

MiaPaCa2 = assay: as above; details: MiaPaCa2 (control line); MMC 2 hours, analyzed 48 hours later; concentrations as high as
Method: as §1, §2, §3

Su86.86 [3] = assay: as above; details: Su86.86 (control line); MMC 2 hours, analyzed 48 hours later; concentrations as high as
Method: as §1, §2, §3

Hs766T [4] = assay: Survival study, manual (hemacytometer) cell counts; details: manual cell counts after 3-4 population doublings (FIG. 3C)
Method: (§4) Cell counts: 1×10^5 cells were plated in tissue culture flasks (25 cm^2). The next day, the medium was substituted with MMC-containing medium (range 0-4.5 μM). Cells were counted after 3-4 population doublings (4-7 days) using a hemacytometer. Four experiments per cell line/concentration were done.
(§5) To confirm the results obtained with the Picogreen assay, we also assessed sensitivity to MMC of the cell lines MiaPaCa2, Su86.86, CAPAN1 and Hs766T with manual (hemacytometer) cell counts. This assay confirmed their hypersensitivity to MMC (FIG. 3C). The FA-defective HNSCC cell line FaDu was also hypersensitive to MMC (FIG. 3D), but not to cisplatin (FIG. 3E), as compared to the FA-proficient HNSCC cell lines A-253 and Detroit 562.

CAPAN1 [5] = assay: Survival study, manual (hemacytometer) cell counts; details: manual cell counts after 3-4 population doublings (FIG. 3C)
Method: as §4, §5

Hs766T (FANCG-mutated) = assay: Survival study, Picogreen DNA quantitation
Method: (§6) Cells were incubated for a period of time long enough to allow non-treated cells to reach at least a threefold increase in fluorescence as compared to day 1 (3-7 days). Medium was changed every 48 hours. Cells were washed with PBS, and lysed in 100 μL sterile water. After 1 hour, 100 μl 0.5% Picogreen (Molecular Probes, Eugene, Oreg.) in tris-EDTA buffer was added to each well. After 45 minutes, wells were read in a fluorometer. Survival was calculated as a percentage; the wells without drugs were considered as 100 percent. Each experiment was done in duplicate; at least six experiments per cell line per concentration were performed.
(§7) The FA-defective pancreatic cancer cell lines Hs766T (FANCG-mutated), PL11 (FANCC-mutated) and CAPAN1 (BRCA2-mutated) and FA-proficient cell lines Su86.86 and MiaPaCa2 were treated with various concentrations of either MMC or cisplatin, and incubated in 96-well plates. Relative cell numbers were determined by measurement of doublestranded DNA content using Picogreen; wells containing no compound were used as controls. […] The FA-defective cell lines

PL11 (FANCC-mutated) = assay: Survival study, Picogreen DNA quantitation
Method: as §6, §7

CAPAN1 (BRCA2-mutated) = assay: Survival study, Picogreen DNA quantitation
Method: as §6, §7

FaDu (FA-defective) = assay: Survival study, Picogreen DNA quantitation
Su86.86 [6] = assay: Survival study, Picogreen DNA quantitation; details: compared to MiaPaCa2, less sensitive than CAPAN1 and PL11
Method: as §6, §7

[7] = 3-7 days, compared to MiaPaCa2 and Su86.86 (FIG. 3A)

Row | Compound | MMC concentration at which cells arrested in G2/M (PL11) | MMC concentration at which cells arrested in G2/M (FaDu) | MMC concentration at which cells arrested in G2/M (BxPC3) | MMC concentration at which cells arrested in G2/M (Hs766T [1]) | MMC concentration at which cells arrested in G2/M (CAPAN1 [2]) | MMC concentration at which cells arrested in G2/M (MiaPaCa2) | MMC concentration at which cells arrested in G2/M (Su86.86 [3]) | Sensitivity to MMC (Hs766T [4]) | Sensitivity to MMC (CAPAN1 [5]) | Sensitivity to MMC (Hs766T (FANCG-mutated); [7]) | Sensitivity to MMC (PL11 (FANCC-mutated); [7]) | Sensitivity to MMC (CAPAN1 (BRCA2-mutated); [7]) | Sensitivity to MMC (FaDu (FA-defective); compared to A-253 and Detroit 562 (FIG. 3D)) | Sensitivity to cisplatin (Hs766T (FANCG-mutated); compared to MiaPaCa2, less sensitive than CAPAN1 and PL11) | Sensitivity to cisplatin (PL11 (FANCC-mutated); 3-7 days (FIG. 3B)) | Sensitivity to cisplatin (CAPAN1 (BRCA2-mutated); 3-7 days (FIG. 3B)) | Sensitivity to cisplatin (Su86.86 [6]) | Hypersensitive to cisplatin (FaDu (FA-defective); compared to A-253 and Detroit 562 (FIG. 3E))
1 | CO[C@@]12[C@H](COC(N)=O)C3=C(C(=O)C(C)=C(N)C3=O)N1C[C@@H]1N[C@@H]12 [MMC, mitomycin C] | 100 nM | 500 nM | 2 µM | 100 nM | 200 nM | 2 µM | 2 µM | hypersensitivity | hypersensitivity | hypersensitive; also recorded: increased sensitivity | hypersensitive; also recorded: increased sensitivity | hypersensitive; also recorded: increased sensitivity | hypersensitive |  |  |  |  | 
2 | N.N.[Cl][Pt][Cl] [cisplatin] |  |  |  |  |  |  |  |  |  |  |  |  |  | increased sensitivity | hypersensitive | hypersensitive | increased sensitivity | not
